Earlier results as cited in patent US20060009471A1, “Amido compounds and their use as pharmaceuticals” (priority 2004, published 2006).

Biological target: T1, 11βHSD1 in the eye (Homo sapiens, UniProt P28845)
T1 construct: host or cells: eye (non-pigmented epithelial cells) of healthy volunteers, in vivo
Details: healthy volunteers, after seven days of carbenoxolone treatment

T1 sequence (P28845 whole entry): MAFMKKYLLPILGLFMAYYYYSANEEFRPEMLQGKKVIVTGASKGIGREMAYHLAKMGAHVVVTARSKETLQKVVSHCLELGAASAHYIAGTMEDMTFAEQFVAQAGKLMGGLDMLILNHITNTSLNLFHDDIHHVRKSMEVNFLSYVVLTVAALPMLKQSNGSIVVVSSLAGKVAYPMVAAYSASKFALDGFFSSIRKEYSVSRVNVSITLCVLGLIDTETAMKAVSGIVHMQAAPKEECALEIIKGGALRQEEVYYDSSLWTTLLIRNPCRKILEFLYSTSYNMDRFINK

Q: Which IOP reduced does the source give for `CC1(C)[C@@H](OC(=O)CCC(=O)O)CC[C@]2(C)[C@H]3C(=O)C=C4[C@@H]5C[C@@](C)(C(=O)O)CC[C@]5(C)CC[C@@]4(C)[C@]3(C)CC[C@@H]12` [carbenoxolone] here?
A: 18%
